Laboratory results: patent publication US12139481B2, “Compositions comprising macrocycle derivatives incorporating bridged macrocycles and methods of producing and using same” (Southwestern Oklahoma State University, priority 2015, dated 2024)
Where two headings read alike, the source gives them in different places.

Experiments:
[1] = tested on: Staphylococcus aureus ATCC 29213; assay: Antibacterial broth dilution assay against S. aureus (modified CLSI); type: cell-based; conditions: for S. aureus IC50 / IC50: in vitro; for IC50: converted with molecular weight; for X more potent than ciprofloxacen: molar IC50 ratio versus ciprofloxacen
How it was run: (§1)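 Growth read by optical density at 530 nm, duplicate wells, 1% final DMSO. Staphylococcus spp.: Mueller-Hinton pH 7.3, 5.0×10^5 CFU/ml, 35 °C for 16-20 h; Candida spp.: RPMI/dextrose/glutamine/MOPS pH 6.0, 1.5×10^3 CFU/ml, 35 °C for 46-50 h. Reported values are 50% inhibition versus controls, no-growth MIC, and killing MFC/MBC.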

[2] = tested on: Plasmodium falciparum D6 clone (Sierra Leon, chloroquine-sensitive); assay: In vitro antimalarial assay, chloroquine-sensitive D6 clone; type: cell-based; conditions: D6 clone; for IC50: converted with molecular weight, read-out: P. falciparum D6 IC50; for X more potent than chloroquine: molar IC50 ratio versus chloroquine
How it was run: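 Parasites grown in type A human RBCs; assay run on infected cell suspension at 2% parasitemia and 2% hematocrit, in duplicate at several concentrations. IC50 taken from dose curves, per the Makler method, with DMSO as vehicle; Vero cytotoxicity run in parallel to derive a selectivity index.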

[3] = tested on: methicillin-resistant S. aureus ATCC 33591 (MRS); assay: Antibacterial broth dilution assay against MRSA (modified CLSI); type: cell-based, Staphylococcus aureus; conditions: for MRSa IC50 / IC50: in vitro; for IC50: converted with molecular weight; for X more potent than ciprofloxacen: molar IC50 ratio versus ciprofloxacen
How it was run: as §1

[4] = tested on: Cryptococcus neoformans ATCC 90113; assay: Antimicrobial microdilution assay against Cryptococcus neoformans (modified CLSI/NCCLS, optical density); type: cell-based; conditions: for X more potent than Amphotericin B: C. neoformans, ratio of molar IC50 to Amphotericin B; for C. neoformans IC50 / IC50: in vitro, C. neoformans ATCC 90113; for IC50: read-out: C. neoformans IC50 (mol/L)
How it was run: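 Fungicidal endpoint taken by subculturing 5 μL from each clear well onto agar, MFC being the lowest concentration with no regrowth. Duplicate wells of serially diluted compound (20% DMSO/saline) in RPMI pH 6.0, read at 630 nm pre- and post-incubation, under modified CLSI methods. IC50 means 50% growth inhibition against controls.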

Row | SMILES | S. aureus IC50 [1] [µg/mL] | IC50 [1] [nM] | X more potent than ciprofloxacen [1] | P. falciparum D6 IC50 [2] [µg/mL] | IC50 [2] [nM] | X more potent than chloroquine [2] | MRSa IC50 [3] [µg/mL] | IC50 [3] [nM] | X more potent than ciprofloxacen [3] | X more potent than Amphotericin B [4] | C. neoformans IC50 [4] [µg/mL] | IC50 [4] [nM] | IC50 ([1]; HCl salt) [nM] | IC50 ([3]; HCl salt) [nM] | IC50 ([4]; HCl salt) [nM]
1 | CC(=O)[O-].F[P-](F)(F)(F)(F)F.[Ni+2].c1ccc(CN2CCCN3CCCN(CCCN(Cc4ccccc4)CC3)CC2)cc1 [DJD22, [Ni(Bn2PBCyclam)(OAc)]PF6] | 4.630 | 6780 | 0.04 | 0.7074 | 1040 | 0.04 | 4.620 | 6760 | 0.03 | 0.03 | 5.240 | 7670 |  |  | 
2 | CN1CCCN2CCN(CCCN(Cc3cccc(CN4CCCN5CCN(C)CCCN(CC5)CC4)c3)CC2)CC1.Cl.Cl.Cl.Cl.Cl.Cl.Cl.Cl [TJS04, m-CB-cyclams HCl salt] | 9.280 |  | 0.03 | 0.7450 | 852 | 0.04 | 7.050 |  | 0.03 | 0.61 | 0.380 |  | 9530 | 7240 | 390
3 | c1cc(CN2CCCN3CCCN(CCCNCC3)CC2)ccc1CN1CCCN2CCCN(CCCNCC2)CC1 [SLK10, p-H2PBCyclams] | 1.410 | 2420 | 0.11 | 0.8657 | 1480 | 0.02 | 2.500 | 4290 | 0.05 | 0.01 | 15.010 | 25800 |  |  | 
4 | c1ccc(CN2CCN3CCCN(CC2)CCN(Cc2ccccc2)CC3)cc1 [AW009, Bn2PBCyclen] | 2.010 | 5120 | 0.05 | 1.0770 | 2740 | 0.01 | 1.050 | 2680 | 0.08 | 0.01 | 6.740 | 17200 |  |  | 
5 | [Cl][Mn-2]([Cl])([Cl])[Cl].[Mn+2].c1ccc(CN2CCCN3CCCN(CCCN(Cc4ccccc4)CC3)CC2)cc1 [BME08, [Mn(Bn2PBCyclam)][MnCl4]] | 0.800 | 1190 | 0.23 | 0.0967 | 144 | 0.25 | 0.800 | 1190 | 0.18 | 0.13 | 1.203 | 1790 |  |  | 
